The test system of this data set is 16 human microsomal P450 enzymes. Briefly: Probing MONACRA metabolism by 16 recombinant human P450 enzymes. Format: biochemical. To be noted: CYP1A2, 2A6, 2B6, 2C8, 2C9, 2C19, 2D6, 2E1, 2J2, 3A4, 3A5, 4A11, 4F2, 4F3A, 4F3B, 4F12. Here is the method:
Based on these observations, we developed a high-throughput automated assay applicable for studying SSPs of MONACRA metabolism by microsomal P450 enzymes. In this procedure, the incubation mixtures containing an NADPH-generating system and various substrate concentrations are placed in a multiwell plate and preincubated at 30°C in a thermostated shaker. The reaction is started by adding microsomal suspension to the final concentration of 0.3–1 mg/ml of microsomal protein or 0.02–0.1 µM of recombinant P450 enzymes in Supersomes. Following the incubation for 20 min at 30°C, the reaction is quenched by adding trichloroacetic acid (final concentration […]). After supplementing the wells with Na-glycine buffer (pH 10.4, final concentration 2.1 M), the plates are subjected to scanning the fluorescence spectra with excitation at 375 nm. This assay, which is described in detail in Materials and Methods, allows reliable detection of the concentrations of HONACRA as low as 0.1 µM.
We used the high-throughput activity assay described above to probe MONACRA metabolism by 16 human microsomal P450 enzymes, namely CYP1A2, CYP2A6, CYP2B6, CYP2C8, CYP2C9, CYP2C19, CYP2D6, CYP2E1, CYP2J2, CYP3A4, CYP3A5, CYP4A11, CYP4F2, CYP4F3A, CYP4F3B, and CYP4F12. […]

“Also recorded” adds a separate entry of the source.

Consider `COc1ccc2cc(C=CC(=O)O)ccc2c1` [MONACRA, 3-(6-methoxynaphthalen-2-yl)acrylic acid], for which the “activity in MONACRA demethylation among 16 recombinant human P450 enzymes” value was “noticeable demethylation activity only with CYP4A11 and CYP1A2; also recorded: detectable activity in MONACRA demethylation was observed only with CYP4A11, CYP1A2, and CYP2C8”.

(Values after PMC12191924, “A new naphthalene-based fluorogenic substrate for cytochrome P450 4A11” (Biochemical Journal, 2025).)
